# Test results from ChEMBL document CHEMBL1201862, “PubChem BioAssay data set” (2004).
# The source made the active and inactive calls.
# What was measured:
# Genome polyprotein = Genome polyprotein (dengue virus type 2, UniProt P29990); assay: flavivirus cap methylation enzyme inhibition – biochemical, confirmation dose response, primary screen (AID 588689); type: functional
# [1] = viability of PTEN-deleted HCT116 cells – cell-based, HCT116 PTEN knockout, dose response (AID 1047); type: functional;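 note: HCT116 colon tumor cells with PTEN knocked out; cells exposed to compound for 60 hours before readout; potency for loss of cell viability measured by luminescence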
# [2] = DRD fibroblast viability loss – cell-based, non-viral oncogenic, luminescence, dose response (AID 1934); type: functional; conditions: Homo sapiens
# BJ [3] = assay: BJ-TERT-LT-ST fibroblast viability loss – cell-based, RAS-independent, luminescence, dose response (AID 1935); type: functional; conditions: Homo sapiens;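 note: BJ fibroblasts immortalized with TERT plus LT and ST oncogenes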
# BJ [4] = assay: cells; type: functional, cell-based; conditions: Homo sapiens
# BJ [5] = assay: BJ-TERT fibroblast viability loss – cell-based, RAS-independent, luminescence, dose response (AID 1933); type: functional; conditions: Homo sapiens
# [6] = viability of HCT116 lacking mutant beta-catenin – cell-based, human colon tumor, dose response (AID 1045); type: functional;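 note: HCT116 colon tumor cells with beta catenin knocked out; cells exposed to compound for 60 hours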
# [7] = target: T1, Short transient receptor potential channel 4 (Mus musculus, UniProt Q9QUQ5); assay: block of DAMGO-driven TRPC4 calcium entry – cell-based, HEK293 TRPC4/mu-opioid, Fluo-4 calcium, dose response (AID 434942); type: functional;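 note: potency of inhibitors blocking the TRPC4 calcium response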
# T1 sequence (Q9QUQ5 whole entry): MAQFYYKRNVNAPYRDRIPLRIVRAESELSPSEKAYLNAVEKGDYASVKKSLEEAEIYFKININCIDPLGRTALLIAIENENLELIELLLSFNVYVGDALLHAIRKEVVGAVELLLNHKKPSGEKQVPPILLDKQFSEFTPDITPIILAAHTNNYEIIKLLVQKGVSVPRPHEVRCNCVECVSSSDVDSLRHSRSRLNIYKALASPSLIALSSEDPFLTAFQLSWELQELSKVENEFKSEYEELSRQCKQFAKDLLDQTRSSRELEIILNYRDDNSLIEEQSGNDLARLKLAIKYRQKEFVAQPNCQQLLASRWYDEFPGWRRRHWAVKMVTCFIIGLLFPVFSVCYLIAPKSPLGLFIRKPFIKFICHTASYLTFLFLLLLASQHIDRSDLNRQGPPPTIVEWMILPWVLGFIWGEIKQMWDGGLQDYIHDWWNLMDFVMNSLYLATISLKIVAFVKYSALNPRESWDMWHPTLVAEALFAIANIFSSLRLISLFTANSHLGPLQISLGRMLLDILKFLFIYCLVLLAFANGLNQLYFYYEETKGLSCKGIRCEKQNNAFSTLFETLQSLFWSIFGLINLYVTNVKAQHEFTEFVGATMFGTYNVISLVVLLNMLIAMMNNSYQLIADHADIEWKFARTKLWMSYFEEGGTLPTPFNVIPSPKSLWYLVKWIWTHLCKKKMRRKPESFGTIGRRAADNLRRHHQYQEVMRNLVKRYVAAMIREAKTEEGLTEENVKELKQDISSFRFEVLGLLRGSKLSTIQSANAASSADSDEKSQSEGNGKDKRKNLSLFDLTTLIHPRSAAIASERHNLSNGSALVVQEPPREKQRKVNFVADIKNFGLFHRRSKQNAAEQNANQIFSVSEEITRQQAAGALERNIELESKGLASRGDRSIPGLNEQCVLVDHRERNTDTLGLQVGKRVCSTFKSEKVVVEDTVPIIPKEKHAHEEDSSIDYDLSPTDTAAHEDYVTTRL
# [8] = target: T2, RNA-binding protein pos-1 (Caenorhabditis elegans, UniProt G5EF15); assay: disruptors of C. elegans POS-1 RNA interaction – biochemical, fluorescence polarization, dose response (AID 1964);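 note: purified POS-1 fused to maltose binding protein made in E. coli; potency of compounds blocking POS-1 binding to fluorescent RNA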
# T2 sequence (G5EF15 whole entry): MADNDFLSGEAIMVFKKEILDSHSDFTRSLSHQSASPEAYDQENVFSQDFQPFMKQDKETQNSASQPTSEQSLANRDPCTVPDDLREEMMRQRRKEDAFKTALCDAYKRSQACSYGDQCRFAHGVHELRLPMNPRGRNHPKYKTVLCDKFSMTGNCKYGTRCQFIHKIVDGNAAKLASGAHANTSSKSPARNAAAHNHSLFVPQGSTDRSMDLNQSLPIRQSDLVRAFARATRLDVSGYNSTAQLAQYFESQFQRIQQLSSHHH
# [9] = target: T3, Zinc finger protein mex-5 (Caenorhabditis elegans, UniProt Q9XUB2); assay: potency of MEX-5 RNA-binding blockers – biochemical, C. elegans, fluorescence polarization, dose response (AID 1960)
# T3 sequence (Q9XUB2 whole entry): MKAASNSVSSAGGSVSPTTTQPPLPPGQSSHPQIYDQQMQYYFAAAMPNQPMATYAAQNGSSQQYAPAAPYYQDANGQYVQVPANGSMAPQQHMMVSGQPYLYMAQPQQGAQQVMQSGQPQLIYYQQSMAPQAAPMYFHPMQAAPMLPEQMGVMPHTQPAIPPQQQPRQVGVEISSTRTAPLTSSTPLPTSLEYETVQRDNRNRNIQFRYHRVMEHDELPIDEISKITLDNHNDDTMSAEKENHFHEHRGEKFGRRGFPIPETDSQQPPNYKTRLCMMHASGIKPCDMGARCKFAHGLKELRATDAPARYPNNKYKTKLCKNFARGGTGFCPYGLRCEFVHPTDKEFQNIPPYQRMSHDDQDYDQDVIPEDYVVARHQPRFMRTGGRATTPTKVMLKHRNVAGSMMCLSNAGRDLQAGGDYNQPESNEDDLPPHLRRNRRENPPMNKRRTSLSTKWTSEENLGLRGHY
# [10] = reduction of Shn3 3'UTR-driven luciferase in osteoblasts – cell-based, Clone20 osteoblasts, firefly luciferase, cherry-picked, dose response (AID 624132); type: functional;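 note: firefly luciferase luminescence from reporter carrying the Shn3 3'UTR in osteoblasts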
# [11] = non-specific 3'UTR reporter inhibition in Clone20-Shn3RL – cell-based, Renilla luciferase, cherry-picked, counter-screen for Shn3 inhibitor project, dose response (AID 624133); type: functional
# [12] = loss of viability in HepG2 cells – cell-based, CellTiter-Glo, cherry-picked, cytotoxicity control for Shn3 inhibitor project, dose response (AID 624134); type: functional
# [13] = target: T4, Polyadenylate-binding protein 1 (Homo sapiens, UniProt P11940); assay: MLLE binding blockers, Cy5 peptide tracer – biochemical, fluorescence polarization, Cy5-PAM2 peptide, secondary, miRNA deadenylation inhibitor project, dose response (AID 602260); type: functional; conditions: read-out: IC50_Mean
# [14] = target: T4, Polyadenylate-binding protein 1; assay: MLLE domain peptide-binding blockers, IC50 – biochemical, fluorescence polarization, FITC-PAM2 peptide, dose response (AID 602259); type: functional; conditions: read-out: IC50_Mean
# [15] = blockers of HIV-1 envelope-mediated cell-cell fusion – cherry-pick, dose response (AID 652057); type: functional, cell-based
# [16] = HIV-1 AD8 envelope cell-cell fusion blockers – cherry-pick, dose response (AID 652062); type: functional, cell-based;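 note: luciferase signal from cell-cell fusion driven by HIV-1 clade B AD8 Env; potency is for inhibitors of fusion seen as a drop in luminescence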
# Paired box protein Pax-8 = Paired box protein Pax-8 (Homo sapiens, UniProt Q06710); assay: PAX8 transcriptional activity inhibition in RMG-I – RMG-I cells, luciferase, cherry-pick, dose response (AID 687027); type: functional, cell-based;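 note: luciferase reporter driven by Pax8 target thyroperoxidase promoter measured by SteadyGlo luminescence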
# [17] = NIH3T3 cell viability loss – ATP luminescence, mouse fibroblasts, counter-screen, dose response (AID 2010); type: functional, cell-based;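 note: cells exposed to compound for about 90 hours before reading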
# [18] = Trypanosoma cruzi growth suppression in host cells – NIH3T3 host cells, beta-gal luminescence, confirmation (AID 2044); type: functional, cell-based;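 note: intracellular parasites grown in NIH/3T3 mouse fibroblasts as host cells; luminescent beta-galactosidase reporter signal from transgenic T. cruzi replicating inside host cells; inhibitors lower the luminescence signal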
# HEK293 = assay: EBV LMP1 TES2 canonical NF-kB signalling blockers – cell-based, HEK293, luciferase, cherry-pick, dose response (AID 588343); type: functional; conditions: Homo sapiens
# Genome polyprotein, sequence (P29990 2492-3391 limits assumed): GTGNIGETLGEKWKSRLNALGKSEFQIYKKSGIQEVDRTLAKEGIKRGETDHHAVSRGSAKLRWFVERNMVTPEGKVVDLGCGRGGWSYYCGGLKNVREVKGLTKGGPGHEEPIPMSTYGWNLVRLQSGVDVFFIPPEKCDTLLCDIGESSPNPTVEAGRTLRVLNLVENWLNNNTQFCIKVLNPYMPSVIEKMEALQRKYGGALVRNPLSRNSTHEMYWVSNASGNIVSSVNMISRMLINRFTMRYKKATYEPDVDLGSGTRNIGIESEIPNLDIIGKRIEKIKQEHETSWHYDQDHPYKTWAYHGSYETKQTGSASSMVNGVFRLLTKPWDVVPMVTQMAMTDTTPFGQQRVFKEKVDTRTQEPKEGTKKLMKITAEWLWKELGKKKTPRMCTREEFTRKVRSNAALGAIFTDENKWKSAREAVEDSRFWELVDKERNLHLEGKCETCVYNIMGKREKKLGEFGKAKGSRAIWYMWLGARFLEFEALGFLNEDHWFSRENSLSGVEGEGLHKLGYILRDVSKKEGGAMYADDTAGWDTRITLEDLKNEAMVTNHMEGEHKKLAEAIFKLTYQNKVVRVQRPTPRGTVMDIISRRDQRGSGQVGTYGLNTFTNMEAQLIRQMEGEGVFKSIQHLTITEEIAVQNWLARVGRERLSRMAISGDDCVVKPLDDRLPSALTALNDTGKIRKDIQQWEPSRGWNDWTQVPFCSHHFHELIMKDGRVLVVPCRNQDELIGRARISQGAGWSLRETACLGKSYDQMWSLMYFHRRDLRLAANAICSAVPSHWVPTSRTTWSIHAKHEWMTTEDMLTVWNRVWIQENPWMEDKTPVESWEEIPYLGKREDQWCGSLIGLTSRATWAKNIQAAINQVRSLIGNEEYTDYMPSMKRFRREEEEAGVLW
# T4 sequence (P11940 whole entry, the tested form may be a part): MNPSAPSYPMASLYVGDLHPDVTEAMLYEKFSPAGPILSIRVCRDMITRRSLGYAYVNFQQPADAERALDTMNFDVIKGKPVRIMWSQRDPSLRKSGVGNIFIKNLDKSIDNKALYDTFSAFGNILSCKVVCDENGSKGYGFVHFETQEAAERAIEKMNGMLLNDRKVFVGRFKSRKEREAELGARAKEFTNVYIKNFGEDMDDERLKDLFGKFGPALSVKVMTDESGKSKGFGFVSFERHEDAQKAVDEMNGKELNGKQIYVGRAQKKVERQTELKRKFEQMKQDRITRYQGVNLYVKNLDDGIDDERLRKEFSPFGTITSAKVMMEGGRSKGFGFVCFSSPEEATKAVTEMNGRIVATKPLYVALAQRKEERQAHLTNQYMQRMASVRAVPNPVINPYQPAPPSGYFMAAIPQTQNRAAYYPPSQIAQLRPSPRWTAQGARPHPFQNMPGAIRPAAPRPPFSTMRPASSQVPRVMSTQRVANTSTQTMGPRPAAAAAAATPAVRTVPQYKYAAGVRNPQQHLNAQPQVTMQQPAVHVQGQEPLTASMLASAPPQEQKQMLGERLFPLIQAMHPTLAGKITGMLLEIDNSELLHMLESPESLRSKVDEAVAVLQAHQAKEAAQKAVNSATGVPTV
# Paired box protein Pax-8, sequence (Q06710 whole entry): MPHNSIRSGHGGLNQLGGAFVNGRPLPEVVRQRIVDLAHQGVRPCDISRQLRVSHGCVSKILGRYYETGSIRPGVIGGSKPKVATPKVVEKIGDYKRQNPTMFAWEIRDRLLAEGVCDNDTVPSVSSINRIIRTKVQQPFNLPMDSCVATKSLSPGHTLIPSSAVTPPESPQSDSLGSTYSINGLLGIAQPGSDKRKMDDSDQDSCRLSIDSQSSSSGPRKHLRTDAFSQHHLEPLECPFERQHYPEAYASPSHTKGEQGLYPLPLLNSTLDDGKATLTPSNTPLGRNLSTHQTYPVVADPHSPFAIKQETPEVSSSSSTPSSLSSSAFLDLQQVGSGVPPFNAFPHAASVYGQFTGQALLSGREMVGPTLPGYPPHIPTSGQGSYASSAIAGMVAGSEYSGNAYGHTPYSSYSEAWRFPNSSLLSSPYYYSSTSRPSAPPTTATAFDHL
smiles,measurement,setting,value
N#Cc1c(SC(C(=O)O)c2ccccc2)nc2c(c1-c1cccs1)CCCC2 (configuration not stated),IC50,Genome polyprotein,39.2 µM (active)
COc1cc(C(=O)N2CCN(c3ccc(C)cc3C)CC2)cc(OC)c1OC,EC50,[1],2.65 µM (active)
same,EC50,[2],3.97 µM (active)
same,EC50,BJ [3],21.8 µM (inconclusive)
same,EC50,BJ [4],138 µM (inconclusive)
same,EC50,BJ [5],11.9 µM (active)
same,EC50,[6],3.45 µM (active)
O=C(Cc1ccc(Br)cc1)NCc1ccccc1,EC50,[2],4.57 µM (active)
same,EC50,BJ [3],45.4 µM (inconclusive)
same,EC50,BJ [4],56.3 µM (inconclusive)
same,EC50,BJ [5],11.9 µM (active)
CCCSc1nc(N)nc(-c2cccs2)c1C#N,EC50,[7],2.66 µM (active)
Cc1cc(C)c(N2C(=O)NC(=O)/C(=C\NNC(=O)c3ccncc3)C2=O)c(C)c1,EC50,[8],64.7 µM (active)
same,EC50,[9],36.6 µM (active)
Cc1cccc(Cn2c(NCCO)nc3c2c(=O)n(C)c(=O)n3C)c1,AC50,[10],0.528 µM (active)
same,AC50,[11],2.12 µM (active)
same,AC50,[12],2.83 µM (active)
COc1ccc(CN2CCCC(C(=O)c3sccc3C)C2)cc1O (configuration not stated),EC50,[7],11.9 µM (active)
O=C(NNS(=O)(=O)c1ccc([N+](=O)[O-])cc1)C(=O)Nc1cccc(C(=O)O)c1,EC50,[8],9.52 µM (inconclusive)
same,EC50,[9],12.3 µM (inconclusive)
Nc1c2c(nc3ccccc13)CCC2,EC50,[7],4.22 µM (active)
CC1=CC(=O)C(Sc2ccc(C)cc2)=CC1=O,IC50,[13],> 66 µM (inactive)
same,IC50,Genome polyprotein,14.5 µM (active)
same,IC50,[14],> 66 µM (inactive)
C[C@H](CO)N1C[C@H](C)[C@H](CN(C)S(=O)(=O)c2ccccc2)Oc2ccc(NC(=O)Cc3ccccc3)cc2CC1=O,AC50,[15],< 0.26 µM (active)
same,AC50,[16],< 0.26 µM (active)
COc1ccc(S(=O)(=O)Nc2ccc3c(c2)C(=O)N([C@H](C)CO)C[C@H](C)[C@H](CN(C)S(=O)(=O)c2ccc(F)cc2)OCCCC[C@H](C)O3)cc1,AC50,Paired box protein Pax-8,4.78 µM (active)
C/C(=N\c1ccc(Br)cc1)c1sc2ccccc2c1O,EC50,[8],> 300 µM (not active)
same,EC50,[17],> 60 µM (not active)
same,EC50,[9],> 300 µM (inconclusive)
same,EC50,[18],4.08 µM (active)
Cc1cccc(/C=N/NC(=O)CNc2cccc3ccccc23)n1,AC50,HEK293,107 µM (active)
